Data on one compound can be found in patent US20180235870A1, “TRANSDERMAL FORMULATIONS FOR DELIVERY OF BERBERINE COMPOUNDS, AND THEIR USE IN THE TREATMENT OF BERBERINE-RESPONSIVE DISEASES AND CONDITIONS” (DELIVRA INC., priority 2015, published 2018).

Each structure is given as a SMILES string. Where two headings read alike, the source gives them in different places. Some results are limits rather than exact numbers.

One data set in a line: physchem. In kind it is physicochemical. Here is the method: The berberine partition coefficient procedure was used to assess the properties of berberine, which was determined to be an overall hydrophilic molecule. […] The solution was shaken by hand for 30 seconds and allowed to stand for 5 minutes. […] The solution was mixed for one hour using a rotating tube inverter (VWR, 13916-822). A blank sample containing water and octanol (0.7 mL of each) was prepared. […] The sample was monitored using UV/V is at wavelengths 230/600 nm and 280/600 nm. Autosampler temperature was maintained at 24° C. and column was at 30° C. The two layers of the sample were injected by adjusting the injection needle height. 0 mm was used for the water layer and +11 mm was used for the octanol layer. The retention time for berberine elution is 1.4 minutes and peak areas were assigned using the onboard Agilent software based upon absorbance at 230 nm. A HPLC-UV chromatogram was recorded for each layer of the partition according the procedure described above. The area under the peak between 1.2-2.2 minutes in the chromatogram was used as a measure of concentration of berberine. A linear relationship was assumed to exist between absorbance and concentration of berberine at the concentrations evaluated. […] The area-blank (cps) was used directly in the equation below.

Data set [1] relates to male Zucker rat, a model of type-2 diabetes and metabolic disorder. Nature of the data set: Effect of berberine, metformin and simvastatin on body mass, lipid biomarkers, food and water intake, clinical chemistry (Example 18). The settings on record: Zucker rats, Days 0 to 28. In kind it is in vivo, obese male Zucker fa/fa rats. How it is done: All in vivo animal husbandry, treatment regiments, and sample collections were completed by InterVivo. The study was completed using obese male Zucker fa/fa rats (Charles River) at 10 weeks of age. […] Shaving was performed under anaesthesia one day prior to initiation of test article administration. The area was further shaven, as needed, over the course of the dosing period to ensure accurate drug application and absorption. For dosing procedures, animals were restrained and the transdermal test articles applied in a uniform layer over the entire shaved area. The shaved administration area was cleaned daily with paper towel before the subsequent transdermal dose was administered. Animals receiving test articles via oral gavage were restrained, and a ball-tipped gavage needle (18G) attached to a syringe containing the dosing solution was first inserted into the mouth, and then into the stomach. To determine the appropriate depth of insertion of the needle, the position corresponding to the last rib was measured prior to insertion. […] Group A), oral administration of berberine (180 mg/kg/dose; […] Group C), and oral administration of the vehicle (Group D) (Table 19). […] Group F), or with orally-administered metformin (200 mg/kg/dose; Group G). […] On Day 28, the animals were dosed in the morning only, prior to euthanasia and tissue collection. Animal body weights were performed once weekly from Day −34 to −2 and daily from Day −1 to 28. Rats were weighed, and the scales were operated and maintained, according to standard operating procedures. Food and water consumption measurements were taken over a 24 hour period, once weekly, from Days 0 to 28. Blood was collected via tail nick on Day-1 to determine unfasted blood glucose level for group allocation. Whole blood was collected via the saphenous vein or other appropriate route on Days 0, 7, 14, 21 and 28 immediately prior to test article administration. […] On Day 28, subjects were anaesthetized with isoflurane, and whole blood was collected via cardiac puncture 2.5 hours (+/−5 minutes) following treatment administration on this day. […]

A short description of data set [2]: Plasma concentrations of berberine, berberine glucuronide, simvastatin and simvastatin hydroxy acid in rats (Example 20). Type of data set: in vivo. The settings on record: rats (n=2); oral 180 mg/kg/dose or transdermal 3.6 g/kg/dose.
For data set [3] the following is noted: uptake inhibited by P-gp-mediated efflux; cited from earlier work.
The conditions of data set [4]: humans; cited from earlier work.
The conditions of data set [5]: cited from earlier work.
The conditions of data set [6]: oral route, published; cited from earlier work.
Where [7] appears, read: first four weeks of treatment, 0.5 g t.i.d.

Usually logD stands for the decadic logarithm of the distribution of all forms, ionised or not, between an organic phase and buffer at a given pH. The low end stands for lower lipophilicity, the high end for higher lipophilicity. Usually Tmax stands for the time from dosing to the highest level. Regarding `COc1ccc2cc3[n+](cc2c1OC)CCc1cc2c(cc1-3)OCO2` [berberine, Berberine], in “physchem”, the “berberine in the lipophilic octanol solvent” value is reported as about 3% and the logD is -0.63. In “physchem” (Partition), the “Octanol area (cps) 230 nm” value was 1763 cps and the “Water area (cps) 230 nm” value was 34696 cps. In “physchem” (Partition minus blank), the “Octanol area (cps) 230 nm” value is 807 cps and the “Water area (cps) 230 nm” value turned out to be 34342 cps. Moreover, in the data set “physchem” (octanol/water), the “berberine remaining within the water layer” value was found to be 97%. In addition, the “cholesterol and triglyceride blood counts (in words)” value in data set [1] is “reduced cholesterol and triglyceride blood counts”. In addition, in data set [1] (non-fasting), the “glucose levels (in words)” value is “largest reduction in glucose levels”. The compound also gave a berberine plasma concentration in data set [2] of 0.44 ng/mL. For the same compound, the bioavailability entry in data set [3] is listed as “less than 5%”. For the same compound, the bioavailability result in data set [4] was “below 1%”. Besides, in data set [5] (setting [7]), the “abdominal pain, percentage of patients” value is reported as 3.4%; the “constipation, percentage of patients” value is on record as 6.9%; the “diarrhea, percentage of patients” value is listed as 10.3%; the “flatulence, percentage of patients” value is 19.0%. In addition, the “patients with adverse gastrointestinal side-effects” value in data set [5] (type 2 diabetes patients, 13 week berberine treatment) was 34.5%. In data set [6], the Tmax was about 15 min and the “time to almost complete clearance after administration” value is at most 30 min.
